Read-outs that look alike come from different tables or passages of the source.
What was measured:
[1] = Stability of 2HF in mouse blood (short-term, postpreparative, freeze-thaw, long-term); format: in vitro ADME, BALB/c mouse; settings: for Deviation, short term stability / Mean concentration, short term stability: +22.0 °C; for Deviation, short term stability / Mean concentration, short term stability / Deviation, freeze-thaw stability / Mean concentration, freeze-thaw stability / Deviation, long-term stability / Mean concentration, long-term stability / Deviation, postpreparative stability / Mean concentration, postpreparative stability: n = 8; for Deviation, freeze-thaw stability / Mean concentration, freeze-thaw stability / Deviation, long-term stability / Mean concentration, long-term stability: −70.0 °C; for Deviation, freeze-thaw stability / Mean concentration, freeze-thaw stability: 6 cycles; for Deviation, postpreparative stability / Mean concentration, postpreparative stability: processed mouse blood sample, +10.0 °C
Description: Stability studies were initiated and completed before analyzing the studied samples. The stability in the biological matrix was evaluated through freezing and thawing cycles, short-term and long-term stability, and postpreparative. All tests were performed with eight replicates for each sample concentration level. To carry out the stability tests, an initial quantification test (TQI) was performed in accordance with local regulatory norms that aim to guarantee good practices through quality standards. In this test, samples of LQC […] and HQC […] were analyzed, in which the concentration was determined by utilizing a freshly prepared calibration curve. The number of replicates that were analyzed in each control was the same as that used in the stability tests. Freeze–thaw cycle temperatures are presented in Supplementary Table S4.
The stability of 2HF in BALB/c mouse blood was evaluated using short-term tests at 22 °C, postprocessing stability at +10 °C, stability in freeze–thaw cycles (n = 06 cycles) and long-term stability with the samples stored at −70 °C. In these assays, the quality controls of low and high concentrations, LQC: 3.00 ng/mL and HQC: 200.00 ng/mL, were used.

Leishmania amazonensis [2] = tested on: Leishmania amazonensis; set-up: method as in Gervazoni et al., 2018; settings: in vitro; ref Gervazoni et al., 2018; cited from earlier work
[3] = Oral pharmacokinetic study of 2HF in BALB/c mouse blood (HPLC-MS/MS, non-compartmental analysis); format: in vivo; settings: BALB/c mice, single oral dose 10 mg/kg, whole blood
Description: BALB/c mice, with six mice per group, received a single dose of 10 mg/kg 2HF that was solubilized in DMSO (2%) and suspended in Ora-plus® (Perrigo, Minneapolis, MN, United States). ORA-Plus is an aqueous-based vehicle consisting of suspending agents that have a high degree of colloidal activity, facilitating the process involved in the extemporaneous compounding of oral suspensions. Ora-Plus contains purified water, microcrystalline cellulose, sodium carboxymethylcellulose, xanthan gum, and carrageenan as suspending agents; calcium sulfate, sodium phosphate, and citric acid as buffering agents; simethicone as an antifoaming agent; and potassium sorbate and methylparaben as preservatives, as described in the datasheet. The doses were administered orally using a gavage needle.
Mouse blood (300 µL) was collected via the orbital plexus, one mouse per time, with six replicates (6 mice per time interval). For anesthesia, an ophthalmic solution of tetracaine hydrochloride (1%) and phenylephrine hydrochloride (0,1%) was used, and one drop was administered in the chosen orbital 5 min before collection. The collection was performed with […] Pasteur pipettes that were previously autoclaved, and blood was transferred to 1.5 mL microtubes that were also heparinized. The time intervals determined were 2.5, 5, 7.5, 10, 15, 30, 45, 60, 90, 120, and 240 min after administration of the compound. After collecting all samples, 2HF was extracted as described above.
The pharmacokinetic parameters were obtained by non-compartmental analysis (NCA) using the Phoenix WinNonlin® 8.1 program (CERTARA). The maximum blood peak concentration (Cmax) and time to peak concentration (Tmax) were obtained directly from the blood concentration-time profiles. The area under the concentration-time curve from time zero to time t (AUC0–t) was obtained using the trapezoidal method. The area under the total blood concentration-time curve from time zero to infinity (AUC0–∞) was calculated using Eq. 4 as follows: AUC0–∞=AUC0–t+Clast÷kel (4) where Clast is the concentration observed at the last time, and kel is the apparent elimination rate constant obtained from the terminal slope of the blood concentration-time curve after logarithmic transformation of the blood concentrations and application of linear regression.
The blood elimination half-life (t1/2) was calculated using Eq. 5 as follows: t1/2=ln2÷kel (5)
Apparent oral clearance (CL/F) and apparent volume of distribution (Vd/F) parameters were obtained from the blood concentrations and expressed normalized to bioavailability (F) because only oral data are available.

Leishmania amazonensis [4] = settings: ref Gervazoni et al., cited from earlier work; for In vivo effects in cutaneous leishmaniasis model: single oral dose/day, 2020
tumor growth = tested on: tumor growth; set-up: method as in earlier work; settings: single oral doses of 100 mg/kg/day or 25, 50 and 100 mg/kg every other day, ref Yue et al., 2020, Nagaprashantha et al., 2011, Singhal et al., 2018a, 2018b; cited from earlier work
[5] = rat plasma, cited from earlier work
[6] = set-up: method as in Teng et al., 2012; settings: ref Teng et al., 2012; cited from earlier work
[7] = ref Gervazoni et al., 2020; cited from earlier work
[8] = orally administered to rats; ref Yang et al., 2019a; cited from earlier work
[9] = set-up: method as in Yang et al., 2019b; settings: rats, 10 mg/kg oral dose; ref Yang et al., 2019b; cited from earlier work
[10] = mouse blood, HQC nominal 200.00 ng/mL
[11] = mouse blood, LQC nominal 3.00 ng/mL
[12] = sensitive and cutaneous murine model, 2018
[13] = oral single dose 100 mg/kg, ref Zhao et al., 2020

For `O=C1CC(c2ccccc2O)Oc2ccccc21` (centres unmarked) [2HF, 2′-Hydroxyflavanone], the “Deviations in stability tests” value ([1]; biological matrix, freezing and thawing, short duration, postprocessing and long duration) was “less than 15%”, the “Deviation, short term stability” value [1, 10] was 7.53% and the “Mean concentration, short term stability” value [1, 10] was 215.06 ng/mL. The “Deviation, short term stability” value [1, 11] was 4.59%, the “Mean concentration, short term stability” value [1, 11] was 3.14 ng/mL and the “Degradation in the biological matrix” value ([1]; mouse blood, all stability tests performed) was “no significant degradation”. For the same molecule, the “Deviation, freeze-thaw stability” value [1, 10] was 4.68%, the “Mean concentration, freeze-thaw stability” value [1, 10] was 209.37 ng/mL and the “Deviation, freeze-thaw stability” value [1, 11] was 1.61%. The “Mean concentration, freeze-thaw stability” value [1, 11] was 3.05 ng/mL, the “Deviation, long-term stability” value [1, 10] was 5.42% and the “Mean concentration, long-term stability” value [1, 10] was 210.83 ng/mL. For the same molecule, the “Deviation, long-term stability” value [1, 11] was −1.33%, the “Mean concentration, long-term stability” value [1, 11] was 2.96 ng/mL and the “Deviation, postpreparative stability” value ([1]; HQC nominal 200.00 ng/mL) was 11.08%. For the same molecule, the “Mean concentration, postpreparative stability” value ([1]; HQC nominal 200.00 ng/mL) was 222.16 ng/mL, the “Deviation, postpreparative stability” value ([1]; LQC nominal 3.00 ng/mL) was 10.11% and the “Mean concentration, postpreparative stability” value ([1]; LQC nominal 3.00 ng/mL) was 3.30 ng/mL. The “Inhibition of promastigote and amastigote forms” value (Leishmania amazonensis [2]) was “inhibit both the promastigote and amastigote forms”, the AUC0-inf [3] was 5,524.54 min x ng/mL and the AUC % extrap [3] was 7.30%. The “Cl/F, total blood clearance” value [3] was 18.10 mL/min, the “Tmax, time to reach Cmax” value [3] was 5 min and the AUC0-t ([3]; trapezoidal method) was 5,120.98 min x ng/mL. It also gave a k el ([3]; mouse, NCA, read-out: Kel, elimination rate constant (converted)) of 0.000118 s⁻¹, a half-life ([3]; mouse, NCA, read-out: T1/2, elimination half-time) of 1.63 h and a Cmax ([3]; mouse, read-out: Cmax, maximum concentration) of 186 ng/mL. For the same molecule, the Vd/F ([3]; mouse, read-out: Vd/F, volume of distribution) was 2.55 L, the “In vivo activity in experimental model of cutaneous leishmaniasis” value (Leishmania amazonensis [4]; daily doses of 50 mg/kg for 35 days, 2018) was “significant effect” and the Lesion size (Leishmania amazonensis [4]; [12]) was “decrease the lesion size”. For the same molecule, the Parasitic load (Leishmania amazonensis [4]; [12]) was “almost cease the parasitic load” and the Tumor growth (tumor growth) was “inhibited different types of tumor growth”.

For `COc1cc(O)cc(O)c1C(=O)/C=C/c1ccccc1` [Cardamonin], the Tmax ([5]; oral single dose 5 mg/kg, ref Jaiswal et al., 2017) is given as 0.50 h.

For `O=C(CCc1ccc(O)cc1)c1c(O)cc(O)cc1O` [Phloretin], the T1/2 [5, 13] is listed as 2.83 h and the Tmax [5, 13] is listed as 1.25 h.

For `O=c1cc(-c2ccc(O)cc2)oc2cc(O)cc(O)c12` [apigenin], the Cmax [6] is listed as 42 ng/mL, the T1/2 [6] is listed as 2.11 h and the Tmax [6] is listed as 0.50 h. For the same molecule, the “In vivo effects in cutaneous leishmaniasis model” value (Leishmania amazonensis [4]) was “promising in vivo effects” and the T1/2 [7] was “less than 192 min”.

For `O=C1c2c(O)cc(O)cc2O[C@H](c2cc(O)c(O)c(O)c2)[C@H]1O` [dihydromyricetin], the T1/2 [8] is listed as 3.04 h and the Tmax [8] is listed as 0.57 h.

For `O=C1c2c(O)cc(O)cc2O[C@H](c2ccc(O)c(O)c2)[C@H]1O` [dihydroquercetin], the T1/2 [8] is given as 2.32 h and the Tmax [8] is given as 0.28 h.

In the case of `COc1cc(O)c(C(=O)/C=C/c2ccccc2)c(OC)c1` [flavokavain B], the Cmax [9] is given as 265.2 ng/mL, the T1/2 [9] is given as 2.76 h and the “Time of Cmax” value [9] is given as 1 h.

In the case of `O=c1c(O)c(-c2cc(O)c(O)c(O)c2)oc2cc(O)cc(O)c12` [myricetin], the T1/2 [8] is given as 2.46 h and the Tmax [8] is given as 0.22 h.

In the case of `O=c1c(O)c(-c2ccc(O)c(O)c2)oc2cc(O)cc(O)c12` [quercetin], the T1/2 [8] is listed as 3.00 h, the Tmax [8] is listed as 0.25 h and the “In vivo effects in cutaneous leishmaniasis model” value (Leishmania amazonensis [4]) is listed as “promising in vivo effects”. The T1/2 [7] was “less than 192 min”.

Reference: publication PMC10033538, “Analysis of 2′-hydroxyflavanone (2HF) in mouse whole blood by HPLC–MS/MS for the determination of pharmacokinetic parameters” (Frontiers in Chemistry, 2023)
